Results from PubChem BioAssay AID1963860 (Molecular Pharmacology Branch, DTP, NCI, 2024).

Tested on: CN0375-F725-PDC KRAS spheroid viability
Assay: Anticancer human tumor CN0375-F725-PDC patient-derived colon carcinoma cell line growth inhibition [KRAS2]
Conditions: spheroids with HUVEC and MSC; for viability, T/C: stronger effect = lower value
Text: Multicellular complex tumor spheroid response to RAS pathway inhibitors in combination with a targeted agents in patient-derived cell lines with oncogenic KRAS variants from multiple cancer types
A high-throughput screen of multi-cell type tumor spheroids was designed to identify active combinations of targeted small molecules and KRAS pathway inhibitors. Complex spheroids include a stromal component modeled by human endothelial cells (HUVEC) and fibroblasts modeled by human mesenchymal stem cells (MSCs). The concentration ranges selected for each drug and investigational agent were based upon clinically achievable concentrations if the clinical Cmax of the agent was known.
Compounds. The drugs and investigational agents: BI-3406 (NSC825286), BAY-293 (NSC824723), batoprotafib (TNO155; NSC825523), sotorasib (AMG 510; NSC818433), MRTX1257 (NSC819558), elimusertib (BAY 1895344; NSC800525), molibresib (GSK525762; NSC774829), temuterkib (LY3214996; NSC803410), venetoclax (NSC766270), alisertib (NSC759677), olaparib (NSC753686), talazoparib (NSC767125), erdafitinib (NSC781556), ipatasertib (NSC767898), cabozantinib (NSC761068), nintedanib (NSC756659), abemaciclib (NSC768073), docetaxel (NSC628503), trametinib (NSC758246), and sapanisertib (NSC764658) were obtained from the National Cancer Institute (NCI) Developmental Therapeutics Program Chemical Repository. The FDA-approved anticancer drug set is available from the Developmental Therapeutics Program. […] The stock solutions were prepared in dimethyl sulfoxide (DMSO, Sigma-Aldrich, St. Louis, MO, cat. D2650) at 800-fold the tested concentration and stored at -70 degrees C prior to their use. All drugs and investigational agents were tested over a range starting from a high concentration at or near the clinical Cmax and decreasing in half-log increments. If the clinical Cmax for an agent had not been determined, the highest concentration tested was 10 microM.
Cell Culture. All cells were maintained in an incubator at 37 degrees C and 5% CO2 with 95% humidity. The PDC lines were cultured according to standard operating procedures established by the NCI PDMR (https://pdmr.cancer.gov/sops/default.htm). Briefly, all PDCs were thawed and cultured in Matrigel-coated flasks prepared with a working solution of 1X Ham's F-12 nutrient mix, without supplementation (Invitrogen, Waltham, MA, cat. 11765054), 100 U/mL penicillin-streptomycin (Invitrogen, cat. 15140122), and 2.5% Matrigel (Corning Inc., Corning, NY, cat. 354248) for the first three passages. All PDCs were cultured in complete DMEM/F-12 media containing advanced DMEM/F-12 (Invitrogen, cat. 12634028), 4.9% defined fetal bovine serum, heat inactivated (HyClone Laboratories Inc., Logan, UT, cat. SH30070.03HI), 389 ng/mL hydrocortisone (Sigma-Aldrich, cat. H4001), 9.7 ng/mL human EGF recombinant protein (Invitrogen, cat. PHG0313), 23.4 microg/mL adenine (Sigma-Aldrich, cat. A2786), 97.3 U/mL penicillin-streptomycin (Invitrogen, cat. 15140122), 1.9 mM L-glutamine (Invitrogen, cat. 25030081), and 9.7 microM Y-27632 dihydrochloride (Tocris Bioscience, Bristol, United Kingdom, cat. 1254). The PDCs were cultured in complete DMEM/F12 media without 9.7 microM Y-27632 dihydrochloride for at least two passages prior to the screen. The established cell line HOP-62 was cultured in RPMI 1640 medium, HEPES (Invitrogen, cat. 22400105) with 10% defined fetal bovine serum (HyClone Laboratories Inc., cat. SH30070.03) and 2 mM L-glutamine (Invitrogen, cat. 25030081). The pooled donor HUVEC were cultured in endothelial cell growth medium 2 (PromoCell, Heidelberg, Germany, cat. C-22011) and the hMSC were cultured in mesenchymal stem cell growth medium 2 (PromoCell, cat. C-28009). For all experiments, HUVEC and hMSC were used at passages </=5, while the malignant cell lines were used at passages </=15. […]

[1] = curve of first compound, second compound 0.1 µM
[2] = curve of first compound, second compound 0.316 µM
[3] = curve of first compound, second compound 1 µM
[4] = curve of first compound, second compound 3.16 µM
[5] = second compound 0.1 µM, first compound 0.0316 µM
[6] = second compound 0.1 µM, first compound 0.1 µM
[7] = second compound 0.316 µM, first compound 0.0316 µM
[8] = second compound 0.316 µM, first compound 0.1 µM
[9] = second compound 1 µM, first compound 0.0316 µM
[10] = second compound 1 µM, first compound 0.1 µM
[11] = second compound 3.16 µM, first compound 0.0316 µM
[12] = second compound 3.16 µM, first compound 0.1 µM
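Note: spheroids exposed to agents for 7 days.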

CC(C)n1nc(-c2ccc3oc(N)nc3c2)c2c(N)ncnc21 + C=CC(=O)N1CCN(c2nc(OCC3CCCN3C)nc3c2CCN(c2cccc4cccc(C)c24)C3)CC1CC#N
IC50 (curve of first compound, second compound 0.0316 µM): 0.0542 µM | IC50 [1]: 0.0392 µM | IC50 [2]: 0.0566 µM | IC50 [3]: 0.0427 µM | IC50 [4]: < 0.000316 µM | viability, T/C (second compound 0.0316 µM, first compound 0.000316 µM): 106% | viability, T/C (second compound 0.0316 µM, first compound 0.001 µM): 96.5% | viability, T/C (second compound 0.0316 µM, first compound 0.00316 µM): 76.8% | viability, T/C (second compound 0.0316 µM, first compound 0.01 µM): 70.1% | viability, T/C (second compound 0.0316 µM, first compound 0.0316 µM): 57.5% | viability, T/C (second compound 0.0316 µM, first compound 0.1 µM): 42.4% | viability, T/C (second compound 0.1 µM, first compound 0.000316 µM): 103% | viability, T/C (second compound 0.1 µM, first compound 0.001 µM): 95.2% | viability, T/C (second compound 0.1 µM, first compound 0.00316 µM): 78.8% | viability, T/C (second compound 0.1 µM, first compound 0.01 µM): 63.8% | viability, T/C [5]: 51.9% | viability, T/C [6]: 43.9% | viability, T/C (second compound 0.316 µM, first compound 0.000316 µM): 103% | viability, T/C (second compound 0.316 µM, first compound 0.001 µM): 98% | viability, T/C (second compound 0.316 µM, first compound 0.00316 µM): 78.3% | viability, T/C (second compound 0.316 µM, first compound 0.01 µM): 63.7% | viability, T/C [7]: 56.6% | viability, T/C [8]: 45% | viability, T/C (second compound 1 µM, first compound 0.000316 µM): 87.4% | viability, T/C (second compound 1 µM, first compound 0.001 µM): 91.2% | viability, T/C (second compound 1 µM, first compound 0.00316 µM): 75.1% | viability, T/C (second compound 1 µM, first compound 0.01 µM): 60% | viability, T/C [9]: 53.2% | viability, T/C [10]: 46.1% | viability, T/C (second compound 3.16 µM, first compound 0.000316 µM): 37.8% | viability, T/C (second compound 3.16 µM, first compound 0.001 µM): 11.5% | viability, T/C (second compound 3.16 µM, first compound 0.00316 µM): 31.4% | viability, T/C (second compound 3.16 µM, first compound 0.01 µM): 1.09% | viability, T/C [11]: 11.5% | viability, T/C [12]: 8.34%

CC1(C)CCC(CN2CCN(c3ccc(C(=O)NS(=O)(=O)c4ccc(NCC5CCOCC5)c([N+](=O)[O-])c4)c(Oc4cnc5[nH]ccc5c4)c3)CC2)=C(c2ccc(Cl)cc2)C1 + C=CC(=O)N1CCN(c2nc(=O)n(-c3c(C)ccnc3C(C)C)c3nc(-c4c(O)cccc4F)c(F)cc23)C(C)C1
IC50 [1]: 4.27 µM | IC50 [2]: 4.49 µM | IC50 [3]: 3.48 µM | IC50 [4]: 6.6 µM | IC50 (curve of first compound, second compound 10 µM): 6.28 µM | viability, T/C [5]: 112% | viability, T/C [6]: 113% | viability, T/C (second compound 0.1 µM, first compound 0.316 µM): 105% | viability, T/C (second compound 0.1 µM, first compound 1 µM): 105% | viability, T/C (second compound 0.1 µM, first compound 3.16 µM): 56.9% | viability, T/C (second compound 0.1 µM, first compound 10 µM): 30.4% | viability, T/C [7]: 110% | viability, T/C [8]: 115% | viability, T/C (second compound 0.316 µM, first compound 0.316 µM): 106% | viability, T/C (second compound 0.316 µM, first compound 1 µM): 108% | viability, T/C (second compound 0.316 µM, first compound 3.16 µM): 58.7% | viability, T/C (second compound 0.316 µM, first compound 10 µM): 30.2% | viability, T/C [9]: 110% | viability, T/C [10]: 116% | viability, T/C (second compound 1 µM, first compound 0.316 µM): 109% | viability, T/C (second compound 1 µM, first compound 1 µM): 103% | viability, T/C (second compound 1 µM, first compound 3.16 µM): 52.3% | viability, T/C (second compound 1 µM, first compound 10 µM): 23.5% | viability, T/C [11]: 113% | viability, T/C [12]: 118% | viability, T/C (second compound 3.16 µM, first compound 0.316 µM): 110% | viability, T/C (second compound 3.16 µM, first compound 1 µM): 104% | viability, T/C (second compound 3.16 µM, first compound 3.16 µM): 60.1% | viability, T/C (second compound 3.16 µM, first compound 10 µM): 44.3% | viability, T/C (second compound 10 µM, first compound 0.0316 µM): 101% | viability, T/C (second compound 10 µM, first compound 0.1 µM): 104% | viability, T/C (second compound 10 µM, first compound 0.316 µM): 106% | viability, T/C (second compound 10 µM, first compound 1 µM): 103% | viability, T/C (second compound 10 µM, first compound 3.16 µM): 63.8% | viability, T/C (second compound 10 µM, first compound 10 µM): 40.6%

C=CC(=O)N1CCN(c2nc(OCC3CCCN3C)nc3c2CCN(c2cccc4cccc(C)c24)C3)CC1CC#N (stereo unspecified)
viability, T/C (compound 0.0316 µM): 100% [middle of 17 runs] | viability, T/C (compound 0.1 µM): 100% [middle of 17 runs] | viability, T/C (compound 0.316 µM): 98.1% [middle of 17 runs] | viability, T/C (compound 1 µM): 92.7% [middle of 17 runs] | IC50 (compound alone, run of 08/26/2021): 1.82 µM [middle of 5 runs] | IC50 (compound alone, run of 09/02/2021): 2.09 µM [middle of 5 runs]
